According to patent publication US9156801B2, “2-substituted oleanolic acid derivative, method preparing for same, and application thereof” (HANGZHOU BENSHENG PHARMACEUTICAL CO., LTD., priority 2011, dated 2015):
In brackets after ≈: the same amount, converted by molar mass.

What was measured:
[1] = tested on: Becap37 cell line; assay: solid tumor cell growth inhibition, MTT; assay type: cell-based; conditions: Homo sapiens; for inhibition at 16 µg/mL: Becap37, 16 μg/mL compound, 72 h, read-out: IR (cell proliferation inhibition rate); for IC50: Becap37, 72 h
Outline: (§1)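 MTT read-out of relative living-cell number after a 72 h compound exposure at 37° C, 5% CO2. Cells had been plated at 4000 per well in DMEM high glucose containing 10% fetal bovine serum and allowed 24 h before dosing. Inhibition is referenced to untreated wells set at 0%.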

[2] = tested on: RKO cell line; assay: solid tumor cell growth inhibition, MTT; assay type: cell-based; conditions: Homo sapiens, 72 h; for inhibition at 16 µg/mL: 16 μg/mL compound, read-out: IR (cell proliferation inhibition rate)
Outline: as §1

[3] = tested on: PC-3 cell line; assay: solid tumor cell growth inhibition, MTT; assay type: cell-based; conditions: Homo sapiens; for IC50: PC-3, 72 h; for inhibition at 16 µg/mL: PC-3, 16 μg/mL compound, 72 h, read-out: IR (cell proliferation inhibition rate)
Outline: as §1

[4] = tested on: A549 cell line; assay: solid tumor cell growth inhibition, MTT; assay type: cell-based; conditions: Homo sapiens; for IC50: A549, 72 h; for inhibition at 16 µg/mL: A549, 16 μg/mL compound, 72 h, read-out: IR (cell proliferation inhibition rate)
Outline: as §1

[5] = tested on: CaES-17 cell line; assay: solid tumor cell growth inhibition, MTT; assay type: cell-based; conditions: Homo sapiens, CaEs17; for inhibition at 16 µg/mL: CaES-17, 16 μg/mL compound, 72 h, read-out: IR (cell proliferation inhibition rate); for IC50: CaES-17, 72 h
Outline: as §1

[6] = tested on: MG-63 cell line; assay: solid tumor cell growth inhibition, MTT; assay type: cell-based; conditions: Homo sapiens; for IC50: MG-63, 72 h; for inhibition at 16 µg/mL: MG-63, 16 μg/mL compound, 72 h, read-out: IR (cell proliferation inhibition rate)
Outline: as §1

[7] = tested on: Hela cell line; assay: solid tumor cell growth inhibition, MTT; assay type: cell-based; conditions: Homo sapiens, 72 h; for IC50: HeLa; for inhibition at 16 µg/mL: Hela, 16 μg/mL compound, read-out: IR (cell proliferation inhibition rate)
Outline: as §1

[8] = tested on: CNE cell line; assay: solid tumor cell growth inhibition, MTT; assay type: cell-based; conditions: Homo sapiens, 72 h; for inhibition at 16 µg/mL: 16 μg/mL compound, read-out: IR (cell proliferation inhibition rate)
Outline: as §1

[9] = tested on: Hep-2 cell line; assay: solid tumor cell growth inhibition, MTT; assay type: cell-based; conditions: Homo sapiens; for IC50: HEp-2, 72 h; for inhibition at 16 µg/mL: Hep-2, 16 μg/mL compound, 72 h, read-out: IR (cell proliferation inhibition rate)
Outline: as §1

[10] = tested on: PANC-1 cell line; assay: solid tumor cell growth inhibition, MTT; assay type: cell-based; conditions: Homo sapiens; for IC50: PANC-1, 72 h; for inhibition at 16 µg/mL: PANC-1, 16 μg/mL compound, 72 h, read-out: IR (cell proliferation inhibition rate)
Outline: as §1

[11] = tested on: MGC 803 cell line; assay: solid tumor cell growth inhibition, MTT; assay type: cell-based; conditions: Homo sapiens; for inhibition at 16 µg/mL: MGC 803, 16 μg/mL compound, 72 h, read-out: IR (cell proliferation inhibition rate); for IC50: MGC 803, 72 h
Outline: as §1

[12] = tested on: U87 MG cell line; assay: solid tumor cell growth inhibition, MTT; assay type: cell-based; conditions: Homo sapiens, U-87 MG, 72 h; for inhibition at 16 µg/mL: 16 μg/mL compound, read-out: IR (cell proliferation inhibition rate)
Outline: as §1

[13] = tested on: SK-OV-3 cell line; assay: solid tumor cell growth inhibition, MTT; assay type: cell-based; conditions: Homo sapiens; for IC50: SK-OV-3, 72 h; for inhibition at 16 µg/mL: SK-OV-3, 16 μg/mL compound, 72 h, read-out: IR (cell proliferation inhibition rate)
Outline: as §1

[14] = tested on: RPMI8226 cell line; assay: multiple myeloma cell growth inhibition, MTT; assay type: cell-based; conditions: Homo sapiens, RPMI-8226; for inhibition at 16 µg/mL: RPMI8226, 16 μg/mL compound, 72 h, read-out: IR (cell proliferation inhibition rate); for IC50: RPMI8226, 72 h
Outline: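 Viability was measured by MTT after a 72 h compound exposure (37° C, 5% CO2) of RPMI8226 myeloma cells seeded at 6000 per well in 1640 medium with 10% fetal bovine serum. Growth inhibition was expressed relative to untreated cells, taken as 0%.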

[15] = tested on: Hep G2 cell line; assay: solid tumor cell growth inhibition, MTT; assay type: cell-based, human; conditions: Homo sapiens; for inhibition at 16 µg/mL: HepG2, 72 h, Hep G2, 16 μg/mL compound, 72 h, read-out: IR (cell proliferation inhibition rate); for IC50: HepG2, Hep G2, 72 h
Outline: as §1

[16] = tested on: NB4 cell line; assay: leukemia cell growth inhibition, MTT; assay type: cell-based; conditions: Homo sapiens, NB-4; for inhibition at 16 µg/mL: NB4, 16 μg/mL compound, 72 h, read-out: IR (cell proliferation inhibition rate); for IC50: NB4, 72 h
Outline: (§2)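 Proliferation inhibition was read by MTT after 72 h of compound exposure (37 °C, 5% CO2), untreated wells defining 0%. Each well held 6000 cells in 1640 medium plus 10% fetal bovine serum, with test compounds at varied concentrations.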

[17] = tested on: H9 cell line; assay: leukemia cell growth inhibition, MTT; assay type: cell-based; conditions: Homo sapiens; for IC50: H9, 72 h; for inhibition at 16 µg/mL: H9, 16 μg/mL compound, 72 h, read-out: IR (cell proliferation inhibition rate)
Outline: as §2

[18] = tested on: K562/adr cell line; assay: leukemia cell growth inhibition, MTT; assay type: cell-based; conditions: Homo sapiens, 72 h; for IC50: K562/Adr; for inhibition at 16 µg/mL: K562/adr, 16 μg/mL compound, read-out: IR (cell proliferation inhibition rate)
Outline: as §2

[19] = tested on: Kasumi-1 cell line; assay: leukemia cell growth inhibition, MTT; assay type: cell-based; conditions: Homo sapiens; for inhibition at 16 µg/mL: Kasumi-1, 16 μg/mL compound, 72 h, read-out: IR (cell proliferation inhibition rate); for IC50: Kasumi-1, 72 h
Outline: as §2

[20] = tested on: Jurkat cell line; assay: leukemia cell growth inhibition, MTT; assay type: cell-based; conditions: Homo sapiens, 72 h; for inhibition at 16 µg/mL: 16 μg/mL compound, read-out: IR (cell proliferation inhibition rate)
Outline: as §2

Row | Structure (SMILES) | inhibition at 16 µg/mL [1] [%] | IC50 [1] [mg/L] | inhibition at 16 µg/mL [2] [%] | IC50 [2] [mg/L] | IC50 [3] [mg/L] | inhibition at 16 µg/mL [3] [%] | IC50 [4] [mg/L] | inhibition at 16 µg/mL [4] [%] | inhibition at 16 µg/mL [5] [%] | IC50 [5] [mg/L] | IC50 [6] [mg/L] | inhibition at 16 µg/mL [6] [%] | IC50 [7] [mg/L] | inhibition at 16 µg/mL [7] [%] | inhibition at 16 µg/mL [8] [%] | IC50 [8] [mg/L] | IC50 [9] [mg/L] | inhibition at 16 µg/mL [9] [%] | IC50 [10] [mg/L] | inhibition at 16 µg/mL [10] [%] | also measured
1 | CCN(CC)CCNC(=O)C1C[C@@]2(C)C(CC[C@]3(C)C2CC=C2C4CC(C)(C)CC[C@]4(C(=O)O)CC[C@]23C)C(C)(C)C1=O (stereo partly drawn) [BS-OA-106] | 27.5 | > 16 | 5.3 | > 16 | > 16 | -6.4 | > 16 | 31.5 | 10 | > 16 | > 16 | 4.9 | > 16 | 34.6 | 44.3 | > 16 | > 16 | 3.8 | > 16 | 16.9 | inhibition at 16 µg/mL [11]: 13.4%; IC50 [11]: > 16 mg/L; inhibition at 16 µg/mL [12]: 7.2%; IC50 [12]: > 16 mg/L; IC50 [13]: > 16 mg/L; inhibition at 16 µg/mL [13]: -17%; inhibition at 16 µg/mL [14]: 68.3%; IC50 [14]: 12.2 mg/L (≈ 20.5 µM); inhibition at 16 µg/mL [15]: 33.6%; IC50 [15]: > 16 mg/L; inhibition at 16 µg/mL [16]: 86.6%; IC50 [16]: 7.32 mg/L (≈ 12.3 µM); IC50 [17]: > 16 mg/L; inhibition at 16 µg/mL [17]: 44.6%; IC50 [18]: 4.12 mg/L (≈ 6.9 µM); inhibition at 16 µg/mL [18]: 98.2%; inhibition at 16 µg/mL [19]: 43%; IC50 [19]: > 16 mg/L; inhibition at 16 µg/mL [20]: 43.2%; IC50 [20]: > 16 mg/L
2 | COC(=O)[C@]12CCC(C)(C)C[C@H]1C1=CC[C@@H]3[C@@]4(C)CC(C(=O)NCCN5CCOCC5)C(=O)C(C)(C)[C@@H]4CC[C@@]3(C)[C@]1(C)CC2 (stereo partly drawn) [BS-OA-059] | 4.7 | > 16 | 1.8 | > 16 | > 16 | 34.1 | > 16 | 11.8 | 34 | > 16 | > 16 | 27 | 16 (≈ 25.6 µM) | 51.8 | 20.6 | > 16 | > 16 | 0 | > 16 | 10.4 | inhibition at 16 µg/mL [11]: -7.4%; IC50 [11]: > 16 mg/L; inhibition at 16 µg/mL [12]: 30.6%; IC50 [12]: > 16 mg/L; IC50 [13]: > 16 mg/L; inhibition at 16 µg/mL [13]: 35.2%; inhibition at 16 µg/mL [14]: 96.6%; IC50 [14]: 7.18 mg/L (≈ 11.5 µM); inhibition at 16 µg/mL [15]: 0.6%; IC50 [15]: > 16 mg/L; inhibition at 16 µg/mL [16]: 86.7%; IC50 [16]: 9.74 mg/L (≈ 15.6 µM); IC50 [17]: 12.7 mg/L (≈ 20.4 µM); inhibition at 16 µg/mL [17]: 67.7%; IC50 [18]: 8.87 mg/L (≈ 14.2 µM); inhibition at 16 µg/mL [18]: 80.5%; inhibition at 16 µg/mL [19]: 48.7%; IC50 [19]: 16 mg/L (≈ 25.6 µM); inhibition at 16 µg/mL [20]: 23.8%; IC50 [20]: > 16 mg/L
3 | COC(=O)[C@]12CCC(C)(C)CC1C1=CCC3[C@@]4(C)CC(C(=O)NCCCN5CCOCC5)C(=O)C(C)(C)C4CC[C@@]3(C)[C@]1(C)CC2 (stereo partly drawn) [BS-OA-037] | 8.4 | > 16 | 62.6 | 14.4 (≈ 22.5 µM) | 18.7 (≈ 29.2 µM) | 44.2 | 10.4 (≈ 16.3 µM) | 82 | 82.3 | 11.6 (≈ 18.1 µM) | 12.5 (≈ 19.5 µM) | 64.6 | 11 (≈ 17.3 µM) | 93.6 | 52.6 | 15.5 (≈ 24.2 µM) | > 16 | 25.6 | > 16 | 11.3 | inhibition at 16 µg/mL [11]: 80.5%; IC50 [11]: 10.8 mg/L (≈ 16.9 µM); inhibition at 16 µg/mL [12]: 92.6%; IC50 [12]: 11.1 mg/L (≈ 17.4 µM); IC50 [13]: 10.2 mg/L (≈ 15.9 µM); inhibition at 16 µg/mL [13]: 90.9%; inhibition at 16 µg/mL [14]: 99.1%; IC50 [14]: 2.43 mg/L (≈ 3.8 µM); inhibition at 16 µg/mL [15]: 95.7%; IC50 [15]: 8.68 mg/L (≈ 13.6 µM); inhibition at 16 µg/mL [16]: 97.6%; IC50 [16]: 4.59 mg/L (≈ 7.18 µM); IC50 [17]: 8.73 mg/L (≈ 13.7 µM); inhibition at 16 µg/mL [17]: 95.8%; IC50 [18]: 1.57 mg/L (≈ 2.46 µM); inhibition at 16 µg/mL [18]: 97.6%; inhibition at 16 µg/mL [19]: 63.7%; IC50 [19]: 13.5 mg/L (≈ 21.1 µM); inhibition at 16 µg/mL [20]: 80.4%; IC50 [20]: 11.5 mg/L (≈ 17.9 µM)
